Experimental data: the SangsterLogP compilation

Tests used:
[1] = method code SF, from DOI: 10.2307/3575799, PMID: 7199747; settings: pH 7.4
[2] = method code SF-AS, from DOI: 10.2307/3575799, PMID: 7199747; settings: pH 7.4

SMILES	logD [1]	logD [2]
NC(=O)Cn1ccnc1[N+](=O)[O-]	-1.22	–
CCC(=O)OCCN(CCOC(=O)CC)C(=O)Cn1ccnc1[N+](=O)[O-]	0.44	–
O=C(Cn1ccnc1[N+](=O)[O-])N(CCO)CCO	-1.59	–
CC(C(=O)NCC(O)CO)n1ccnc1[N+](=O)[O-] (stereo not given)	-1.64	–
CC(=O)OCC(CNC(=O)Cn1ccnc1[N+](=O)[O-])OC(C)=O (stereo not given)	–	-0.77
O=C(Cn1ccnc1[N+](=O)[O-])NC(CO)(CO)CO	-1.77	–
O=COCCN(CCOC=O)C(=O)Cn1ccnc1[N+](=O)[O-]	-1.66	–
CC(C(=O)NCCO)n1ccnc1[N+](=O)[O-] (stereo not given)	-1.16	–
CC(=O)OCCN(CCOC(C)=O)C(=O)Cn1ccnc1[N+](=O)[O-]	–	-0.64
CC(O)CN(CC(C)O)C(=O)Cn1ccnc1[N+](=O)[O-] (stereo not given)	–	-0.96
